The record followed here is article PMC10514295, “Imidazo[1,2-c]quinazolines as a novel and potent scaffold of α-glucosidase inhibitors: design, synthesis, biological evaluations, and in silico studies” (Scientific Reports, 2023).

In general, IC50 refers to the concentration needed to halve the response being measured. Usually Ki stands for a measure of affinity in units of concentration, obtained from inhibition or displacement. Read a low Ki as a stronger hold on the target.

Assay [1] has as its target T1, Saccharomyces cerevisiae α-glucosidase (Saccharomyces cerevisiae, UniProt P53341).
T1 construct: purchased Sigma-Aldrich
The assay is described as follows: biochemical. The note with it: mean ± SD, at least three experiments; substrate p-nitrophenyl glucopyranoside, pH 6.8, 37 °C; read-out: IC50 (in vitro α-glucosidase inhibitory activity). The method, then:
The target substituted imidazo[1,2-c]quinazolines 6a–c and 11a–o were evaluated for their in vitro Saccharomyces cerevisiae α-glucosidase inhibitory activities to investigate the role of substituents on the imidazole moiety and the phenyl ring originated from benzaldehyde moieties.
α-Glucosidase enzyme ((EC3.2.1.20, Saccharomyces cerevisiae, 20 U mg^−1) and substrate (p-nitrophenyl glucopyranoside) were purchased from Sigma-Aldrich. Enzyme was prepared in potassium phosphate buffer (pH 6.8, 50 mM), as well as substituted benzo[4,5]imidazo[1,2-c]quinazoline 6a-c and highly-substituted imidazo[1,2-c]quinazolines 11a–o were dissolved in DMSO (10% final concentration). The various concentrations of these compounds ([…]), enzyme solution ([…]) and potassium phosphate buffer ([…]) were added in the 96-well plate and incubated at 37 °C for 10 min. Afterwards, the substrate ([…], 4 mM) was added to the mentioned mixture and allowed to incubate at 37 °C for 20 min. […] The percentage of enzyme inhibition was calculated using Eq. (6) and IC50 values were obtained from non-linear regression curve using the Logit method.6 %Inhibition=Abscontrol-Abssample/Abscontrol×100

Assay [2] addresses T2, α-glucosidase (Saccharomyces cerevisiae, UniProt P53341). Nature of the assay: Circular dichroism spectroscopy, secondary structure content of the enzyme. On the set-up: purchased Sigma-Aldrich. The note with it: inhibitor 12.4 μM. As for the experimental part:
The difference between the absorption of right and left circularly polarized light is measured in circular dichroism spectroscopy (CD) in order to reveal the chiral environment around amino acid residues. The CD spectrum in the far ultraviolet region ranged from 190 to 240 nm is mainly used to provide valuable information about the arrangement of protein bonds and secondary structure of the proteins in dilute solutions. There are several principal conformations like α-helix, extended β structure (or β-sheet), β-turn, and random coil (which are unordered structures). They are characterized as follow: α-helix structures by negative CD bands at 222 and 208 nm and a positive CD band at approximately 190 nm; β-sheet structures by a negative CD band in the region of 210–220 nm; β-turn structures by a negative CD band between 180 and 190 nm; and the spectra of random coil by a characteristic negative CD band in region of 200 nm[49],[50].
To study the impact of imidazo[1,2-c]quinazoline 11j on the secondary structure of α-glucosidase (Fig. 4b), the CD spectra (180–250 nm) was measured and analyzed using the CDNN software to be compared with the native enzyme (Fig. 4a). […] Moreover, this compound can change the secondary structure of α-glucosidase, resulting to inhibit its performance.
(Circular dichroism is widely used to follow secondary structure.)

For assay [3], the target named is T2, α-glucosidase. Nature of the assay: Fluorescence spectroscopy (quenching) measurements. Type of assay: binding. Also on record: purchased Sigma-Aldrich. The method, then:
In present study, fluorescence spectroscopy measurement was performed between imidazo[1,2-c]quinazoline 11j and the active site of enzyme using a Synergy HTX multi-mode reader (Biotek Instruments, Winooski, VT, USA) equipped with a quartz cuvette of 10 mm. The excitation wavelength was 280 nm, and the emission spectra were reported at five different temperatures in the range from 300 to 450 nm with 10 accumulations for each collection point. The emission spectrum was adjusted for the background fluorescence from the buffer solution and for the inner filter effect promoted by the inhibitors (Fig. 5).
There are two types of fluorescence quenching: dynamic and static. Dynamic quenching arises from the collisional encounter between the fluorophore (tryptophan residues) and the quencher (inhibitor). […] Therefore, the biding parameters can be determined as follow:
The reaction is determined as P + D → DnP in which P is the protein, D is the drug molecule (inhibitor), and DnP is the new complex molecule. The binding constant for this complex for this complex, denoted as KA, is calculated using Eq. (1). […] Since the number of the binding site of protein and drug is n and 1, respectively, the equivalent concentration of the complex DnP is n[DnP]. Moreover, the equivalent concentration of the protein is n[P], and the equivalent concentration of the drug is [D]:1 KA=nDnP/DnP
The total concentration of protein is [Pt], and the total concentration of the drug is [Dt]; therefore, [Pt] = [Pf] + [DnP] and [Df] = [Dt]−n[DnP]. Since protein (P) is the only fluorescence in present study, thus:2 F0/F=Pt/Pf
F and F0 are the fluorescence intensity of protein in the presence and absence of inhibitor, respectively. Therefore, the relationship between the fluorescence intensity and the total concentration of the drug could be deduced:3 F0/F=KADtF0/F0-F-n KAPt
As the total concentration of protein was kept at a constant value (at 46 nM), while the total concentration of the drug was changed. Using the Eq. (3), a plot of F0/F Vs. [Dt] F0/(F0−F) was obtained, as depicted in Fig. 6.
To this aim, different solutions containing different concentrations (0 to 1.0 µM) of the inhibitor and α-glucosidase (3 ml, 0.1 U ml^−1) were held for 10 min to equilibrate before measurements. Moreover, the fluorescence of the buffer containing compound 11j in the absence of the enzyme were subtracted as the background fluorescence. Afterwards, at the excitation wavelength of 280 nm, the fluorescence emission spectra were measured from 300 to 450 nm using a Synergy HTX multi-mode reader (Biotek Instruments, Winooski, VT, USA) equipped with a 1.0 cm quartz cell holder.

In assay [4] the target is T2, α-glucosidase. The assay is described as follows: Enzyme kinetic study (Lineweaver–Burk plot).
Procedure: [I] is the concentration of inhibitor.
Therefore, the slope of Lineweaver Burk plot is equal to:10 Slope=Km/Vmax1+I/KI
The Kmapp value is calculated by Eq. (6):11 Kmapp=Km1+I/KI
[I], Eq. (7) can be used for the calculation of KI[59],[60]:12 Kmapp=Km+Km/KII
Assay [5] concerns the target T2, α-glucosidase. The assay is described as follows: Thermodynamic analysis of binding to α-glucosidase. Also on record: purchased Sigma-Aldrich. The source says: This fluorescent intensity data was plotted as a function of temperature and binding constants; therefore, thermodynamic profile including ΔG (free energy change), ΔH (enthalpy change), and ΔS (entropy change) could be computed to determine the type of non-covalent forces between imidazo[1,2-c]quinazoline 11j and binding site of α‑glucosidase. These forces between the protein and inhibitor can be categorized into four groups: hydrogen bond, van der Waals forces, electrostatic attraction, and hydrophobic interactions. To identify the type of interactions in present study, thermodynamic parameters must be calculated using following equations:4 lnKA2/KA1=ΔH/R1/T2-1/T1 5 ΔG=-RT ln KA=ΔH-TΔS
Already, there was some information including binding constants (KA2 = 36.6 × 10^4 and KA1 = 40.5 × 10^4) as well as initial and final temperatures (T1 = 20 ℃ (293 K) and T2 = 60 ℃ (333 K)). Therefore, using Eq. (4), ΔH is obtained − 2.17 (kJ mol^–1) and subsequently using Eq. (5), ΔG and ΔS values are calculated − 20.6 (kJ mol^–1) and 62.9 (J mol^–1 K^–1), respectively.
Considering the sign of these thermodynamic parameters, the type of non-covalent force could be determined as follow: (1) ΔH > 0, ΔS > 0, hydrophobic interactions; (2) ΔH < 0, ΔS > 0, van der Waals forces; (3) ΔH < 0, ΔS < 0, hydrogen bond and van der Waals interactions; and (4) ΔH < 0, ΔS > 0, electrostatic interactions.

T1 sequence (P53341 whole entry): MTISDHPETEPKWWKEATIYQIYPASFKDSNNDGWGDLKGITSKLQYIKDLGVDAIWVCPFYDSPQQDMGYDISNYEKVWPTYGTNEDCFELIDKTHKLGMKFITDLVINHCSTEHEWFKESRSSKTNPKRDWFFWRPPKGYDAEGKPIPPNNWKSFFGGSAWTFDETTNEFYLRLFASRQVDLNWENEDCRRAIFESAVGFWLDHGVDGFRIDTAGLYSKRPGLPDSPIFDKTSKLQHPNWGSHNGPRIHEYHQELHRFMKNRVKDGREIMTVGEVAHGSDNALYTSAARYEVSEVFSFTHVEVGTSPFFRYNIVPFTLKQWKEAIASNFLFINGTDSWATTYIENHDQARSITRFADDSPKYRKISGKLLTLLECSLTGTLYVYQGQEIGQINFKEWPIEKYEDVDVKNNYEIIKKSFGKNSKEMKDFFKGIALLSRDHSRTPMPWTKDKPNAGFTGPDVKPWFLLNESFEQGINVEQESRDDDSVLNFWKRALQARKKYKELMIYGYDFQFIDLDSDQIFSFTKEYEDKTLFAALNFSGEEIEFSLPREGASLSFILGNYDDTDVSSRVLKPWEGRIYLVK
T2 sequence (P53341 whole entry): as above

Consider `COc1cc(-c2nc3ccccc3c3nc(-c4ccccc4)c(-c4ccccc4)n23)cc(Br)c1OC` [11o, 5-(3-bromo-4,5-dimethoxyphenyl)-2,3-diphenylimidazo[1,2-c]quinazoline], for which, in assay [1], the IC50 came out at 154.9 ± 0.36 µM. In the case of `Clc1cccc(-c2nc3ccccc3c3nc(-c4ccccc4)c(-c4ccccc4)n23)c1` [11c, 5-(3-chlorophenyl)-2,3-diphenylimidazo[1,2-c]quinazoline], the IC50 in assay [1] came to 246.49 ± 0.18 µM.

With `c1ccc(-c2nc3ccccc3c3nc4ccccc4n23)cc1` [6a, 6-phenylbenzo[4,5]imidazo[1,2-c]quinazoline], in assay [1], the IC50 was 256.48 ± 0.14 µM. Consider `COc1cccc(-c2nc3ccccc3c3nc(-c4ccccc4)c(-c4ccccc4)n23)c1` [11h, 5-(3-methoxyphenyl)-2,3-diphenylimidazo[1,2-c]quinazoline], for which, in assay [1], the IC50 was determined as 47.92 ± 0.18 µM. The same measure, in the same setting: the same measure for `CN(C)c1ccc(-c2nc3ccccc3c3nc(-c4ccccc4)c(-c4ccccc4)n23)cc1` [11f, 4-(2,3-diphenylimidazo[1,2-c]quinazolin-5-yl)-N,N-dimethylaniline]: 168.36 ± 0.15 µM; for `Cc1ccc(-c2nc3ccccc3c3nc(-c4ccccc4)c(-c4ccccc4)n23)cc1` [11e, 5-(4-methylphenyl)-2,3-diphenylimidazo[1,2-c]quinazoline]: 124.5 ± 0.29 µM. Still for that read-out and setting: the same measure for `c1ccc(-c2nc3c4ccccc4nc(-c4ccccc4)n3c2-c2ccccc2)cc1` [11a, 2,3,5-triphenylimidazo[1,2-c]quinazoline]: 209.15 ± 0.04 µM.

Consider `COc1ccc(OC)c(-c2nc3ccccc3c3nc(-c4ccccc4)c(-c4ccccc4)n23)c1` [11l, 5-(2,5-dimethoxyphenyl)-2,3-diphenylimidazo[1,2-c]quinazoline], for which, in assay [1], the IC50 was found to be 64.29 ± 0.54 µM. `Clc1ccccc1-c1nc2ccccc2c2nc(-c3ccccc3)c(-c3ccccc3)n12` [11d, 5-(2-chlorophenyl)-2,3-diphenylimidazo[1,2-c]quinazoline]: the 50% inhibitory concentration (IC50) in assay [1] turned out to be 253.1 ± 0.26 µM. On to `Clc1ccc(-c2nc3ccccc3c3nc4ccccc4n23)cc1` [6b, 6-(4-chlorophenyl)benzo[4,5]imidazo[1,2-c]quinazoline], for which the concentration for half-maximal inhibition (IC50) in assay [1] was determined as 308.33 ± 0.06 µM. On to `COc1ccc(-c2nc3ccccc3c3nc4ccccc4n23)cc1` [6c, 6-(4-methoxyphenyl)benzo[4,5]imidazo[1,2-c]quinazoline], for which the IC50 in assay [1] was found to be 124.3 ± 0.37 µM. Take `Clc1ccc(-c2nc3ccccc3c3nc(-c4ccccc4)c(-c4ccccc4)n23)cc1` [11b, 5-(4-chlorophenyl)-2,3-diphenylimidazo[1,2-c]quinazoline]: the IC50 in assay [1] came to 273.28 ± 0.09 µM. The same measure, in the same setting: then `COc1ccc(-c2nc3ccccc3c3nc(-c4ccccc4)c(-c4ccccc4)n23)c(OC)c1` [11k, 5-(2,4-dimethoxyphenyl)-2,3-diphenylimidazo[1,2-c]quinazoline], with 14.32 ± 0.05 µM. The same measure, in the same setting: the same measure for `COc1ccccc1-c1nc2ccccc2c2nc(-c3ccccc3)c(-c3ccccc3)n12` [11i, 5-(2-methoxyphenyl)-2,3-diphenylimidazo[1,2-c]quinazoline]: 24.25 ± 0.13 µM. `COc1ccc(-c2nc3ccccc3c3nc(-c4ccccc4)c(-c4ccccc4)n23)cc1OC` [11m, 5-(3,4-dimethoxyphenyl)-2,3-diphenylimidazo[1,2-c]quinazoline]: in assay [1], the 50% inhibitory concentration (IC50) turned out to be 21.6 ± 0.32 µM. The same measure, in the same setting: the same measure for `COc1cc(-c2nc3ccccc3c3nc(-c4ccccc4)c(-c4ccccc4)n23)cc(OC)c1OC` [11n, 2,3-diphenyl-5-(3,4,5-trimethoxyphenyl)imidazo[1,2-c]quinazoline]: 46.73 ± 0.07 µM; for `COc1ccc(-c2nc3ccccc3c3nc(-c4ccccc4)c(-c4ccccc4)n23)cc1` [11g, 5-(4-methoxyphenyl)-2,3-diphenylimidazo[1,2-c]quinazoline]: 82.64 ± 0.03 µM. Turning to `COc1cccc(-c2nc3ccccc3c3nc(-c4ccccc4)c(-c4ccccc4)n23)c1OC` [11j, 5-(2,3-dimethoxyphenyl)-2,3-diphenylimidazo[1,2-c]quinazoline], in assay [2] (native enzyme 28.8), the “α-Helix content of α-glucosidase” value was found to be 50.3% and the “ꞵ-Turn content of α-glucosidase” value is given as 49.7%. For the same molecule, the “Random coil content of α-glucosidase” value in assay [2] (native enzyme 42.4) came out at 0%. Moreover, the “number of binding sites n” value in assay [3] (20 ℃) is on record as 0.3. Besides, the “binding constant KA” value in assay [3] (20 ℃, protein 46 nM) is 40.5 × 10^4 L mol^–1 s^–1. In addition, the “binding constant KA” value in assay [3] (60 ℃) was 36.6 × 10^4 L mol^–1 s^–1. In assay [3] (tryptophan residues as fluorophores), the fluorescence quenching mechanism entry is recorded as “static quenching”. In assay [4], this molecule returned a Ki of 11 µM. The type of inhibition result in assay [4] (Lineweaver–Burk plot: Km increased, Vmax did not change) is “competitive”. The “ΔS (entropy change)” value in assay [5] (Eq. (5)) is on record as 62.9 J mol^–1 K^–1. In addition, in assay [5] (from signs of ΔH and ΔS), the “acting non-covalent force between inhibitor and enzyme” value was “electrostatic forces”.
